This note sets out measurements from article PMC3127140, “In Vivo Anti-Tumor Activity of Polypeptide HM-3 Modified by Different Polyethylene Glycols (PEG)” (International Journal of Molecular Sciences, 2011).

This experiment concerns Human hepatic carcinoma SMMC-7721 cell line. As to the kind of experiment: Inhibitory effect on growth of human hepatoma SMMC-7721 xenografts in nude mice (tumor weight / tumor volume). Type of experiment: in vivo, BALB/c nude mouse. The conditions noted are these: SMMC-7721 xenograft in BALB/c nude mice, n = 6 per group, i.v. for 21 days, tumors weighed the next day; (W − Wt)/W versus normal saline control; Taxol 10 mg/kg twice a week; HM-3 3 mg/(kg·d) twice a day; ALD-mPEG5k-HM-3 11.4 mg/(kg·d) once a day; ALD-mPEG10k-HM-3 and SC-mPEG10k-HM-3 19.9 mg/(kg·2d) every two days; SC-mPEG20k-HM-3 36.7 mg/(kg·2d) every two days (dose as total PEG conjugate). The procedure:
Human hepatic carcinoma SMMC-7721 cell line was purchased from American type Cell Culture (ATCC, Shanghai, China) and maintained in Dulbecco’s modified Eagle’s medium (DMEM) with 10% fetal bovine serum and antibiotics. BALB/c nude female mouse (SPF grade, 4–5 w, 20.9 ± 0.492 g) were purchased from the Shanghai Laboratory Animal Center of the Chinese Academy of Sciences.
SMMC-7721 cells were cultured in DMEM medium under 5% CO2/saturated humidified air at 37 °C. Cells were digested with the mixture of the trypsin (0.25%) and EDTA (0.02%) at logarithmic growth phase and passaged every 3–4 day. […]
All the mice (20 g) were administrated intravenously for 21 days and the tumor volumes were measured every two days. […] Antitumor ratio determined by the tumor volumes is (V − Vt)/V (V is the average tumor volume of the control group, and Vt is the average tumor volume of the treated group). The antitumor ratio by the tumor weights was also calculated as (W − Wt)/W (W is the average tumor weight of the control group, and Wt is the average tumor weight of the treatment group).
The data was analyzed using the statistics software SPSS13.0, which are expressed as mean ± SD. Statistical significance was assessed using the Student t test. […]
Background: A xenograft is tissue or cells of one species grown in another, often human tumour cells in immunodeficient mice.

For the compound `CC(=O)O[C@H]1C(=O)[C@@]2(C)[C@H]([C@H](OC(=O)c3ccccc3)[C@]3(O)C[C@H](OC(=O)[C@H](O)[C@@H](NC(=O)c4ccccc4)c4ccccc4)C(C)=C1C3(C)C)[C@]1(OC(C)=O)CO[C@@H]1C[C@@H]2O` [Taxol, paclitaxel], the “Tumor weight inhibition rate (inhibition rate of average tumor weight)” value amounted to 44.50%.
